# Reference: patent US20260042731A1, “(2,4-DICHLOROPHENOXY)ACETIC ACID ANALOGS” (CORTEVA AGRISCIENCE LLC, priority 2022, published 2026)
# Read-outs that look alike come from different tables or passages of the source.
# Tests used:
# [1] = tested on: Chenopodium album (CHEAL), common lambsquarters; assay: Postemergence herbicide evaluation, growth of Chenopodium album (CHEAL); type: in vivo; settings: Chenopodium album, post-emergence, read-out: Ave. CHEAL, percent reduction in plant size relative to the untreated control; for pest or weed control at 280 g/ha: 280 g ae/ha; for pest or weed control at 560 g/ha: 560 g ae/ha
# [2] = tested on: Amaranthus rudis (AMATA), tall water hemp; assay: Postemergence herbicide evaluation, growth of Amaranthus rudis (AMATA); type: in vivo; settings: Amaranthus tuberculatus, post-emergence, read-out: Ave. AMATA, percent reduction in plant size relative to the untreated control; for pest or weed control at 280 g/ha: 280 g ae/ha; for pest or weed control at 560 g/ha: 560 g ae/ha
# [3] = tested on: Abutilon theophrasti (ABUTH), velvetleaf; assay: Postemergence herbicide evaluation, growth of Abutilon theophrasti (ABUTH); type: in vivo; settings: Abutilon theophrasti, post-emergence, read-out: AVE. ABUTH, percent reduction in plant size relative to the untreated control; for pest or weed control at 280 g/ha: 280 g ae/ha; for pest or weed control at 560 g/ha: 560 g ae/ha
# [4] = tested on: Ambrosia artemisiifolia (AMBEL), common ragweed; assay: Postemergence herbicide evaluation, growth of Ambrosia artemisiifolia (AMBEL); type: in vivo; settings: Ambrosia artemisiifolia, post-emergence, read-out: AVE. AMBEL, percent reduction in plant size relative to the untreated control; for pest or weed control at 280 g/ha: 280 g ae/ha; for pest or weed control at 560 g/ha: 560 g ae/ha
# [5] = Volatility of compounds measured by thermogravimetric analysis (TGA); type: physicochemical
# [6] = tested on: glyphosate resistant Conyza canadensis (L.) (ERICA), horseweed; assay: Postemergence herbicide evaluation, growth of Conyza canadensis (ERICA); type: in vivo; settings: Erigeron canadensis, post-emergence, read-out: Ave. ERICA, percent reduction in plant size relative to the untreated control; for pest or weed control at 280 g/ha: 280 g ae/ha; for pest or weed control at 560 g/ha: 560 g ae/ha
# [7] = tested on: weeds ABUTH, AMATA, AMBEL, CHEAL, ERICA; assay: Postemergence herbicide evaluation, overall average % weed control (ABUTH, AMATA, AMBEL, CHEAL, ERICA); type: in vivo; settings: post-emergence, read-out: Overall Ave % Weed Control; for pest or weed control at 280 g/ha: 280 g ae/ha; for pest or weed control at 560 g/ha: 560 g ae/ha
Compound,"pest or weed control at 280 g/ha ([1]; 168 h, 7 DAA) [%]","pest or weed control at 560 g/ha ([1]; 168 h, 7 DAA) [%]","pest or weed control at 280 g/ha ([1]; 336 h, 14 DAA) [%]","pest or weed control at 560 g/ha ([1]; 336 h, 14 DAA) [%]","pest or weed control at 280 g/ha ([1]; 504 h, 21 DAA) [%]","pest or weed control at 560 g/ha ([1]; 504 h, 21 DAA) [%]","pest or weed control at 280 g/ha ([2]; 168 h, 7 DAA) [%]","pest or weed control at 560 g/ha ([2]; 168 h, 7 DAA) [%]","pest or weed control at 280 g/ha ([2]; 336 h, 14 DAA) [%]","pest or weed control at 560 g/ha ([2]; 336 h, 14 DAA) [%]","pest or weed control at 280 g/ha ([2]; 504 h, 21 DAA) [%]","pest or weed control at 560 g/ha ([2]; 504 h, 21 DAA) [%]","pest or weed control at 280 g/ha ([3]; 168 h, 7 DAA) [%]","pest or weed control at 560 g/ha ([3]; 168 h, 7 DAA) [%]","pest or weed control at 280 g/ha ([3]; 336 h, 14 DAA) [%]","pest or weed control at 560 g/ha ([3]; 336 h, 14 DAA) [%]","pest or weed control at 280 g/ha ([3]; 504 h, 21 DAA) [%]","pest or weed control at 560 g/ha ([3]; 504 h, 21 DAA) [%]","pest or weed control at 280 g/ha ([4]; 168 h, 7 DAA) [%]","pest or weed control at 560 g/ha ([4]; 168 h, 7 DAA) [%]",also measured
O=C(COc1ccc(Cl)cc1Cl)Nc1cc[nH]n1 [Compound D21],82.5,80,95,92.5,92.5,96,72.5,90,88,90,67.5,100,32.5,47.5,37.5,57.5,47.5,75,75,85,"pest or weed control at 280 g/ha ([4]; 336 h, 14 DAA): 70%; pest or weed control at 560 g/ha ([4]; 336 h, 14 DAA): 92.5%; pest or weed control at 280 g/ha ([4]; 504 h, 21 DAA): 99.5%; pest or weed control at 560 g/ha ([4]; 504 h, 21 DAA): 100%; TGA Data (rate of weight loss, volatility) [5]: 0.07078 µg/min; pest or weed control at 280 g/ha ([6]; 168 h, 7 DAA): 82.5%; pest or weed control at 560 g/ha ([6]; 168 h, 7 DAA): 80%; pest or weed control at 280 g/ha ([6]; 336 h, 14 DAA): 100%; pest or weed control at 560 g/ha ([6]; 336 h, 14 DAA): 100%; pest or weed control at 280 g/ha ([6]; 504 h, 21 DAA): 95%; pest or weed control at 560 g/ha ([6]; 504 h, 21 DAA): 98%; pest or weed control at 280 g/ha ([7]; 168 h, 7 DAA): 69%; pest or weed control at 560 g/ha ([7]; 168 h, 7 DAA): 76.5%; pest or weed control at 280 g/ha ([7]; 336 h, 14 DAA): 78.1%; pest or weed control at 560 g/ha ([7]; 336 h, 14 DAA): 86.5%; pest or weed control at 280 g/ha ([7]; 504 h, 21 DAA): 80.4%; pest or weed control at 560 g/ha ([7]; 504 h, 21 DAA): 93.8%"
CC(C)CONC(=O)COc1ccc(Cl)cc1Cl [Compound D22],80,82.5,91.5,99,97.5,97.5,80,92.5,92.5,92.5,87.5,100,72.5,82.5,93.5,98.5,100,99,90,85,"pest or weed control at 280 g/ha ([4]; 336 h, 14 DAA): 90%; pest or weed control at 560 g/ha ([4]; 336 h, 14 DAA): 97.5%; pest or weed control at 280 g/ha ([4]; 504 h, 21 DAA): 100%; pest or weed control at 560 g/ha ([4]; 504 h, 21 DAA): 100%; TGA Data (rate of weight loss, volatility) [5]: 0.2649 µg/min; pest or weed control at 280 g/ha ([6]; 168 h, 7 DAA): 85%; pest or weed control at 560 g/ha ([6]; 168 h, 7 DAA): 85%; pest or weed control at 280 g/ha ([6]; 336 h, 14 DAA): 100%; pest or weed control at 560 g/ha ([6]; 336 h, 14 DAA): 99%; pest or weed control at 280 g/ha ([6]; 504 h, 21 DAA): 100%; pest or weed control at 560 g/ha ([6]; 504 h, 21 DAA): 100%; pest or weed control at 280 g/ha ([7]; 168 h, 7 DAA): 81.5%; pest or weed control at 560 g/ha ([7]; 168 h, 7 DAA): 85.5%; pest or weed control at 280 g/ha ([7]; 336 h, 14 DAA): 93.5%; pest or weed control at 560 g/ha ([7]; 336 h, 14 DAA): 97.3%; pest or weed control at 280 g/ha ([7]; 504 h, 21 DAA): 97%; pest or weed control at 560 g/ha ([7]; 504 h, 21 DAA): 99.3%"
CC(C)ONC(=O)COc1ccc(Cl)cc1Cl [Compound D23],80,85,96.5,99,94,95,82.5,82.5,90,90,72.5,87.5,70,90,93.5,99,99,100,77.5,75,"pest or weed control at 280 g/ha ([4]; 336 h, 14 DAA): 80%; pest or weed control at 560 g/ha ([4]; 336 h, 14 DAA): 85%; pest or weed control at 280 g/ha ([4]; 504 h, 21 DAA): 100%; pest or weed control at 560 g/ha ([4]; 504 h, 21 DAA): 100%; TGA Data (rate of weight loss, volatility) [5]: 0.6973 µg/min; pest or weed control at 280 g/ha ([6]; 168 h, 7 DAA): 80%; pest or weed control at 560 g/ha ([6]; 168 h, 7 DAA): 77.5%; pest or weed control at 280 g/ha ([6]; 336 h, 14 DAA): 100%; pest or weed control at 560 g/ha ([6]; 336 h, 14 DAA): 97.5%; pest or weed control at 280 g/ha ([6]; 504 h, 21 DAA): 99%; pest or weed control at 560 g/ha ([6]; 504 h, 21 DAA): 100%; pest or weed control at 280 g/ha ([7]; 168 h, 7 DAA): 78%; pest or weed control at 560 g/ha ([7]; 168 h, 7 DAA): 82%; pest or weed control at 280 g/ha ([7]; 336 h, 14 DAA): 92%; pest or weed control at 560 g/ha ([7]; 336 h, 14 DAA): 94.1%; pest or weed control at 280 g/ha ([7]; 504 h, 21 DAA): 92.9%; pest or weed control at 560 g/ha ([7]; 504 h, 21 DAA): 96.5%"
